Results taken from US10471010B2, “Liposomal corticosteroids for treatment of inflammatory disorders in humans” (ENCELADUS PHARMACEUTICALS B.V., priority 2011, dated 2019).

Legend:
[1] = tested on: rats with adjuvant-induced arthritis; test: Rat adjuvant-induced arthritis, paw inflammation scores; format: in vivo, Lewis rats; settings: for effect on the course of the disease: single injection, equal dose (10 mg/kg), 10 mg/kg
Procedure: Lewis rats were immunized subcutaneously at the tail base with heat-inactivated Mycobacterium tuberculosis in incomplete Freund's adjuvant. […] Assessment of the disease was performed by visually scoring paw inflammation severity, maximum score 4 per paw, and measuring disease-induced body weight loss. The therapeutic efficacy of liposomal prednisolone phosphate on these variables was compared with equal doses unencapsulated drug. Rats were treated when the average score >6 (at day 14 or 15 after disease induction).

[2] = potency of prednisolone set to 1; cited from earlier work

Row | SMILES | average inflammation scores ([1]; 20 mg/kg daily for 7 days, day 15 until day 21, from average 6.5 on day 14) | effect of repeated daily treatment ([1]; repeated daily treatment) | effect on the course of the disease [1] | effect on the course of the disease ([1]; listed as free prednisolone) | potency ratio as compared to prednisolone [2]
1 | C[C@]12C=CC(=O)C=C1CC[C@@H]1[C@@H]2[C@@H](O)C[C@@]2(C)[C@H]1CC[C@]2(O)C(=O)COP(=O)(O)O [Unencapsulated prednisolone phosphate, prednisolone phosphate] | around 5.0 | short-lasting moderate effect | did not significantly alter the course of the disease | not effective | –
2 | CC(=O)OCC(=O)[C@@]1(O)CC[C@H]2[C@@H]3CCC4=CC(=O)CC[C@]4(C)[C@@]3(F)[C@@H](O)C[C@@]21C [fludrocortisone acetate] | – | – | – | – | 3.5
3 | C[C@]12C=CC(=O)C=C1CC[C@H]1[C@@H]3C[C@@H](O)[C@](O)(C(=O)CO)[C@@]3(C)C[C@H](O)[C@@]12F [triamcinolone] | – | – | – | – | 1.25
